The experiment deals with BDF1 mice, P388 leukemia ip, median survival T/C. In words: NCI In Vivo Anticancer Drug Screen. Data for tumor model P388 Leukemia (intraperitoneal) in B6D2F1 (BDF1) mice. As to conditions: endpoint: median survival time, higher = longer survival. The procedure, abridged: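 Survival ratio, drug arm over vehicle arm, in mice with a transplanted tumour.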
[1] abbreviates: dose: 50.0 mg/kg/injection, schedule: Q01DX009 (ip), vehicle: saline.
The mark [2] stands for this setting: dose: 100.0 mg/kg/injection, schedule: Q01DX009 (ip), vehicle: saline.
Where [3] appears, read: dose: 100.0 mg/kg/injection, schedule: Q01DX009 (ip), vehicle: saline with Tween-80.
Where [4] appears, read: dose: 100.0 mg/kg/injection, schedule: Q01DX009 (ip), vehicle: Klucel (hydroxypropylcellulose) (HPC).
[5] abbreviates: dose: 200.0 mg/kg/injection, schedule: Q01DX009 (ip), vehicle: Klucel (hydroxypropylcellulose) (HPC).
[6] abbreviates: dose: 6.25 mg/kg/injection, schedule: Q01DX009 (ip), vehicle: saline.
The mark [7] stands for this setting: dose: 100.0 mg/kg/injection, schedule: Q04DX003 (ip), vehicle: other.
[8] abbreviates: dose: 200.0 mg/kg/injection, schedule: Q04DX003 (ip), vehicle: other.
The mark [9] stands for this setting: dose: 400.0 mg/kg/injection, schedule: Q04DX003 (ip), vehicle: other.
The mark [10] stands for this setting: dose: 100.0 mg/kg/injection, schedule: Q04DX003 (ip), vehicle: Klucel (hydroxypropylcellulose) (HPC).
Setting [11] is: dose: 200.0 mg/kg/injection, schedule: Q04DX003 (ip), vehicle: Klucel (hydroxypropylcellulose) (HPC).
[12] abbreviates: dose: 400.0 mg/kg/injection, schedule: Q04DX003 (ip), vehicle: Klucel (hydroxypropylcellulose) (HPC).
Setting [13] is: dose: 12.5 mg/kg/injection, schedule: Q01DX009 (ip), vehicle: saline.
Where [14] appears, read: dose: 25.0 mg/kg/injection, schedule: Q01DX009 (ip), vehicle: saline.

Several values for one entry are separate records, joined by “and”; a condition that tells them apart may be missing. Identical values can stand only once. Inconclusive results and toxic doses are left out.

Regarding `CC(NC(=O)c1ccc(Cl)cc1Cl)c1ccccc1` (stereo not drawn), the T/C by setting is: (dose: 100.0 mg/kg/injection, schedule: Q01DX001 (ip), vehicle: other) 100 % of control; (dose: 400.0 mg/kg/injection, schedule: Q01DX001 (ip), vehicle: other) 95 % of control.
`N#CO`: the T/C is 103 % of control (2×) and 113 % of control (dose: 33.0 mg/kg/injection, schedule: Q01DX009 (ip), vehicle: saline); 109 % of control (dose: 42.0 mg/kg/injection, schedule: Q01DX009 (ip), vehicle: saline); 96 % of control and 122 % of control under setting [1]; 90 % of control (dose: 56.0 mg/kg/injection, schedule: Q01DX009 (ip), vehicle: saline); 100 % of control and 121 % of control (dose: 75.0 mg/kg/injection, schedule: Q01DX009 (ip), vehicle: saline); 109 % of control under setting [2].
As to `CN(C)C1CCc2ccccc2C1OC(=O)/C=C/c1ccccc1` (stereo not drawn), the T/C is, setting by setting: (dose: 25.0 mg/kg/injection, schedule: Q01DX009 (ip), vehicle: saline with Tween-80) 100 % of control; (dose: 50.0 mg/kg/injection, schedule: Q01DX009 (ip), vehicle: saline with Tween-80) 102 % of control; under setting [3], 102 % of control.
`Clc1nc2nnnn2c2ccccc12`: the T/C is 94 % of control (dose: 20.0 mg/kg/injection, schedule: Q01DX009 (ip), vehicle: saline) and 95 % of control (dose: 40.0 mg/kg/injection, schedule: Q01DX009 (ip), vehicle: saline).
Take `CCCCNCCC(SSSC(CCNCCCC)c1ccc(Cl)cc1)c1ccc(Cl)cc1` (stereo not drawn): the T/C is, setting by setting: (dose: 6.25 mg/kg/injection, schedule: Q04DX003 (ip), vehicle: saline with Tween-80) 104 % of control; (dose: 12.5 mg/kg/injection, schedule: Q04DX003 (ip), vehicle: saline with Tween-80) 100 % of control; (dose: 25.0 mg/kg/injection, schedule: Q04DX003 (ip), vehicle: saline with Tween-80) 109 % of control.
On to `NC(=O)N/N=C/c1ccccc1N`, for which the T/C is 90 % of control under setting [4]; 100 % of control under setting [5]; 100 % of control (dose: 400.0 mg/kg/injection, schedule: Q01DX009 (ip), vehicle: Klucel (hydroxypropylcellulose) (HPC)).
Turning to `CCCCCCCOc1ccc(OCCCC[N+]2(CC)CCCCC2)cc1`, the T/C under setting [6] was 100 % of control.
For `Cc1ccn(-c2ccccc2)n1`, the T/C by setting is: under setting [7], 104 % of control; under setting [8], 113 % of control; under setting [9], 113 % of control.
Turning to `O=C(COc1cc(Cl)c(Cl)cc1Cl)OCCN(CCOC(=O)COc1cc(Cl)c(Cl)cc1Cl)C(=O)COc1ccc(Cl)cc1`, the T/C was 100 % of control under setting [7], 86 % of control under setting [8] and 100 % of control under setting [9].
Turning to `C=CCNC(=S)Nc1cc(Cl)ccc1OC`, the T/C reads like this: under setting [10], 109 % of control; under setting [11], 95 % of control; under setting [12], 95 % of control.
As to `CCCCCCCCCCCCCCCCS(=O)(=O)CCO`, the T/C reads like this: (dose: 100.0 mg/kg/injection, schedule: Q04DX003 (ip), vehicle: saline with Tween-80) 104 % of control; (dose: 200.0 mg/kg/injection, schedule: Q04DX003 (ip), vehicle: saline with Tween-80) 91 % of control.
Turning to `Cc1cc2nc(C)c(=O)[nH]c2cc1C`, the T/C by setting is: under setting [4], 100 % of control; under setting [10], 95 % of control; under setting [5], 95 % of control; under setting [11], 95 % of control; under setting [12], 95 % of control.
With `Cc1cc2nc(N)sc2cc1C`, the T/C was 115 % of control (dose: 12.5 mg/kg/injection, schedule: Q01DX009 (ip), vehicle: other) and 105 % of control (dose: 25.0 mg/kg/injection, schedule: Q01DX009 (ip), vehicle: other).
For `O=C(N/N=C\c1ccc(N(CCCl)CCCl)cc1)c1cccnc1`, the T/C was 112 % of control (dose: 100.0 mg/kg/injection, schedule: Q01DX009 (ip), vehicle: gum acacia) and 172 % of control (dose: 200.0 mg/kg/injection, schedule: Q01DX009 (ip), vehicle: gum acacia).
Take `c1ccc(C2CC3CCCCN3O2)cc1` (stereo not drawn): the T/C by setting is: (dose: 100.0 mg/kg/injection, schedule: Q04DX002 (ip), vehicle: saline with Tween-80) 94 % of control; (dose: 200.0 mg/kg/injection, schedule: Q04DX002 (ip), vehicle: saline with Tween-80) 103 % of control; (dose: 400.0 mg/kg/injection, schedule: Q04DX002 (ip), vehicle: saline with Tween-80) 86 % of control.
For the compound `CC[n+]1cccc(NC(=O)c2ccc(NC(=O)c3ccc(C(=O)Nc4ccc(C(=O)Nc5ccc[n+](CC)c5)cc4)cc3)cc2)c1`, the T/C was 118 % of control (dose: 0.44 mg/kg/injection, schedule: Q04DX003 (ip), vehicle: saline); 150 % of control (dose: 0.88 mg/kg/injection, schedule: Q01DX009 (ip), vehicle: saline); 163 % of control (dose: 1.32 mg/kg/injection, schedule: Q01DX009 (ip), vehicle: saline); 190 % of control (dose: 2.0 mg/kg/injection, schedule: Q01DX009 (ip), vehicle: saline); 204 % of control (dose: 2.77 mg/kg/injection, schedule: Q01DX009 (ip), vehicle: saline); 177 % of control (dose: 3.0 mg/kg/injection, schedule: Q01DX009 (ip), vehicle: saline). For the same compound, the T/C is, setting by setting: (dose: 4.17 mg/kg/injection, schedule: Q01DX009 (ip), vehicle: saline) 191 % of control; under setting [6], 183 % of control and 220 % of control; (dose: 9.38 mg/kg/injection, schedule: Q01DX009 (ip), vehicle: saline) 237 % of control; (dose: 11.0 mg/kg/injection, schedule: Q04DX003 (ip), vehicle: saline) 168 % of control; under setting [13], 295 % of control; (dose: 16.5 mg/kg/injection, schedule: Q04DX003 (ip), vehicle: saline) 200 % of control. The T/C under setting [14] is 90 % of control; the T/C (dose: 25.0 mg/kg/injection, schedule: Q04DX003 (ip), vehicle: saline) is 200 % of control; the T/C (dose: 37.5 mg/kg/injection, schedule: Q04DX003 (ip), vehicle: saline) is 181 % of control.
For the compound `CC1CCC2(C)CCC(C(C)C)C2(O)CC1` (stereo not drawn), the T/C was 103 % of control under setting [2]; 100 % of control (dose: 100.0 mg/kg/injection, schedule: Q04DX003 (ip), vehicle: saline); 109 % of control (dose: 200.0 mg/kg/injection, schedule: Q04DX003 (ip), vehicle: saline); 111 % of control (dose: 400.0 mg/kg/injection, schedule: Q01DX009 (ip), vehicle: saline); 100 % of control (dose: 400.0 mg/kg/injection, schedule: Q04DX003 (ip), vehicle: saline).
With `O=C1CN(C2CCCCC2)CC(=O)N2C(c3ccccc3)CCCN12` (stereo not drawn), the T/C was 97 % of control (dose: 50.0 mg/kg/injection, schedule: Q01DX005 (ip), vehicle: saline with Tween-80); 103 % of control (dose: 100.0 mg/kg/injection, schedule: Q01DX005 (ip), vehicle: saline with Tween-80); 118 % of control (dose: 200.0 mg/kg/injection, schedule: Q01DX005 (ip), vehicle: saline with Tween-80).
Turning to `CN(N=O)C(=O)NC(C=O)C(O)C(O)C(O)CO` (stereo not drawn), under “dose: 25.0 mg/kg/injection, schedule: Q01DX010 (ip), vehicle: saline”, the T/C was 113 % of control.
In the case of `CCCC(N=Cc1ccccc1O)C(=O)O.CCCC(N=Cc1ccccc1O)C(=O)O.[Fe]` (stereo not drawn), the T/C by setting is: under setting [13], 86 % of control; under setting [14], 90 % of control; under setting [1], 90 % of control; (dose: 50.0 mg/kg/injection, schedule: Q04DX003 (ip), vehicle: saline) 90 % of control.
With `CCOC(=O)CC(=O)c1ccc(C)cc1`, the T/C under setting [3] is 90 % of control and the T/C (dose: 200.0 mg/kg/injection, schedule: Q01DX009 (ip), vehicle: saline with Tween-80) was 90 % of control.
As to `CC1(O)C=CC(=O)C=C1`, the T/C (dose: 25.0 mg/kg/injection, schedule: Q01DX009 (ip), vehicle: water) is 157 % of control and the T/C (dose: 50.0 mg/kg/injection, schedule: Q01DX009 (ip), vehicle: water) is 173 % of control.
As for `CCCCCCCC(=O)Nc1ccc(C)cc1C`, the T/C under setting [7] was 95 % of control, the T/C under setting [8] was 104 % of control and the T/C under setting [9] was 95 % of control.
